Test results from ChEMBL document CHEMBL5512636, “Novel 6-hydroxybenzothiazol-2-carboxamides as potent and selective monoamine oxidase B inhibitors endowed with neuroprotective activity” (Eur J Med Chem, 2024).

What was measured:
[1] = target: T1, Amine oxidase [flavin-containing] A (Homo sapiens, UniProt P21397); test: Inhibition of recombinant human MAO-A expressed in baculovirus infected insect cells using kynuramine as substrate at 10 uM by fluorescence based method relative to control; conditions: Insect cell
T1 sequence (P21397 whole entry): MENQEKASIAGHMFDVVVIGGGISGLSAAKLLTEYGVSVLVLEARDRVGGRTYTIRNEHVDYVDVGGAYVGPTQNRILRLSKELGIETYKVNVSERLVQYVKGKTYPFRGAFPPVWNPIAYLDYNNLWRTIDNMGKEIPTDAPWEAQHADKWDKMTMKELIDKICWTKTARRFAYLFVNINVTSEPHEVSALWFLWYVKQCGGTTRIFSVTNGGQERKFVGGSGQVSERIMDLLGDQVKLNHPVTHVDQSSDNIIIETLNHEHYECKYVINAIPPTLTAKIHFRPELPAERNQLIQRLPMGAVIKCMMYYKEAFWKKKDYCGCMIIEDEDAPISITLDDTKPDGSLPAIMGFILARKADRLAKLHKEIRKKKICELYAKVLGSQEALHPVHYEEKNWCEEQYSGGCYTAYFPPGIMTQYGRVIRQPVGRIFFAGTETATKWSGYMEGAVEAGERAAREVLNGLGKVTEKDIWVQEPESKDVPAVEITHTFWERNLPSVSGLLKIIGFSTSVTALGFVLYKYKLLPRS

[2] = target: Microtubule-associated protein tau (Homo sapiens, UniProt P10636); test: Inhibition of GFP/RFP-fused tau oligomerization in human SH-SY5Y cells incubated for 2 hrs by FRET assay; type: cell-based
[3] = target: T2, Amine oxidase [flavin-containing] B (Homo sapiens, UniProt P27338); test: Inhibition of recombinant human MAO-B expressed in baculovirus infected insect cells using kynuramine as substrate at 10 uM by fluorescence based method relative to control; conditions: Insect cell
T2 sequence (P27338 whole entry): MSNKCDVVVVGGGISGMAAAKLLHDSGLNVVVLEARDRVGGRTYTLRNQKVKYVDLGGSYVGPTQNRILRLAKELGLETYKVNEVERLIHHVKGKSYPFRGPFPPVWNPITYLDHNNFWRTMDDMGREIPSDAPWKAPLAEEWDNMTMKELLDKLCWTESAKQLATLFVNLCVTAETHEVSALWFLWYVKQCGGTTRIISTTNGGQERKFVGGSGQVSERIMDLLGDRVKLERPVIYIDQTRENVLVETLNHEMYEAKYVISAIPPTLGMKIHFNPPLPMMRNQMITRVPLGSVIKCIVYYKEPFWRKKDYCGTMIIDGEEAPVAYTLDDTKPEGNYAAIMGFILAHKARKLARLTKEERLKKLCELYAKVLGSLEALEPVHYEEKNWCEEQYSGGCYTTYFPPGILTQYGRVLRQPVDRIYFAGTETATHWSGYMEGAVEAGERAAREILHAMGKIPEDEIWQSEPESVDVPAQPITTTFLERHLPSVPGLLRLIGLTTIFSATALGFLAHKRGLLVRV

[4] = target: T1, Amine oxidase [flavin-containing] A; test: biochemical
Description: Inhibition of recombinant human MAO-A expressed in baculovirus infected insect cells using kynuramine as substrate by fluorescence based method

[5] = Permeability of compound by PAMPA
[6] = target: T2, Amine oxidase [flavin-containing] B; test: Inhibition of human MAO-B incubated for 30 mins by Amplex Red assay
[7] = target: T3, Amine oxidase [flavin-containing] B (Rattus norvegicus, UniProt P19643); test: Inhibition of rat brain mitochondria MAO-B using benzylamine as substrate incubated for 30 mins by absorbance based assay
T3 sequence (P19643 whole entry): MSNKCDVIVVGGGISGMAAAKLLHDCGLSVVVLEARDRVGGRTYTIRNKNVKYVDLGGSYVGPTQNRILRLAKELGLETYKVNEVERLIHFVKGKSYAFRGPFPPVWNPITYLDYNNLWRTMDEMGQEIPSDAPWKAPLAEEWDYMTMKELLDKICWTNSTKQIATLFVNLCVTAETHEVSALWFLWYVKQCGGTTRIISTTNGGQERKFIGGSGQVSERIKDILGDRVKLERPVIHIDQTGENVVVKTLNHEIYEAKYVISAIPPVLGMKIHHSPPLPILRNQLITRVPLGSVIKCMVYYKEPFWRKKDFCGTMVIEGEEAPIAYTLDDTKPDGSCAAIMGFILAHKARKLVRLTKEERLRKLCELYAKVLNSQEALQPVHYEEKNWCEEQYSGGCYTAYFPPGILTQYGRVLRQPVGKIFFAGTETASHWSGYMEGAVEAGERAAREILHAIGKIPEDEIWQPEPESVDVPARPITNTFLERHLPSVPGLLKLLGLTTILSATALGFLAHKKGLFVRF

[8] = target: T2, Amine oxidase [flavin-containing] B; test: biochemical; type: cell-based, Insect cell
Description: Inhibition of recombinant human MAO-B expressed in baculovirus infected insect cells using kynuramine as substrate by fluorescence based method

Sequence of Microtubule-associated protein tau (P10636 whole entry, the tested form may be a part): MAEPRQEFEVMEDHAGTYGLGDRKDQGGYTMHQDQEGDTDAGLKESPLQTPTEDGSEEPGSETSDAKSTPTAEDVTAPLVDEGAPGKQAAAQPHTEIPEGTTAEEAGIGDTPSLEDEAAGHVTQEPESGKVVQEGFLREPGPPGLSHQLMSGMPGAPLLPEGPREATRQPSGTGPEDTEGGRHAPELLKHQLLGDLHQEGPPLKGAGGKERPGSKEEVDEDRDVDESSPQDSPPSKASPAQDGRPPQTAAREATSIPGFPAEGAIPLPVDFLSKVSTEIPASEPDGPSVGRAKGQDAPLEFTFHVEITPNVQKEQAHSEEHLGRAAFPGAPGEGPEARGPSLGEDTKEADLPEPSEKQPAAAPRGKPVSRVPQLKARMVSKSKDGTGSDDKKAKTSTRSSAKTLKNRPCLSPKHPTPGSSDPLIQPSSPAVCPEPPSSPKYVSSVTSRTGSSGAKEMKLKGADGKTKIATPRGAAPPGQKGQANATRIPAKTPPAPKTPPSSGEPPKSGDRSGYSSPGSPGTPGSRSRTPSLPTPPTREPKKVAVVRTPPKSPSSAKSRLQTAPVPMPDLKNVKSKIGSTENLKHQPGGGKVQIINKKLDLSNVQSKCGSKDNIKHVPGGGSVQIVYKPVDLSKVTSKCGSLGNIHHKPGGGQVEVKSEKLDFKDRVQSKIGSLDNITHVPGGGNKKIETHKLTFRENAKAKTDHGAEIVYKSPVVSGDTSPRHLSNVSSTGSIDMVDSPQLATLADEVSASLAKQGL

Row | inhibition at 10 µM [1] [%] | Structure (SMILES) | further results
1 | 36 | O=C(NCCc1ccccc1)c1nc2ccc(O)cc2s1 | EC50 [2]: 10.5 µM
2 | 28 | O=C(NCc1cccc(Cl)c1)c1nc2ccc(O)cc2s1 | –
3 | 16 | O=C(NCc1ccccc1F)c1nc2ccc(O)cc2s1 | –
4 | 19 | Cc1cccc(CNC(=O)c2nc3ccc(O)cc3s2)c1 | –
5 | 32 | COc1ccc(CNC(=O)c2nc3ccc(O)cc3s2)cc1F | –
6 | 24 | O=C(NCc1ccccc1Cl)c1nc2ccc(O)cc2s1 | –
7 | 21 | O=C(NCc1ccc(Cl)cc1)c1nc2ccc(O)cc2s1 | –
8 | 15 | Cc1ccccc1CNC(=O)c1nc2ccc(O)cc2s1 | –
9 | 25 | COc1ccccc1CNC(=O)c1nc2ccc(O)cc2s1 | –
10 | 52 | O=C(NCc1ccc(F)cc1)c1nc2ccc(O)cc2s1 | –
11 | 35 | O=C(NCc1ccc(F)cc1F)c1nc2ccc(O)cc2s1 | –
12 | 29 | O=C(NCc1ccc(F)c(F)c1)c1nc2ccc(O)cc2s1 | –
13 | 8 | O=C(NCc1cccc(F)c1)c1nc2ccc(O)cc2s1 | –
14 | 22 | Cc1ccc(CNC(=O)c2nc3ccc(O)cc3s2)cc1 | –
15 | 10 | O=C(NCc1ccco1)c1nc2ccc(O)cc2s1 | inhibition at 10 µM [3]: 41%
16 | 33 | O=C(NCc1cccs1)c1nc2ccc(O)cc2s1 | –
17 | 19 | O=C(NCc1cccc(F)c1F)c1nc2ccc(O)cc2s1 | –
18 | 18 | O=C(NCc1ccccc1)c1nc2ccc(O)cc2s1 | IC50 [8]: 0.552 µM

More lines, now with the values behind:

Row | Structure (SMILES) | inhibition at 10 µM [1] [%] | further results
19 | COc1ccc(CNC(=O)c2nc3ccc(O)cc3s2)c(OC)c1 | 26 | –
20 | Cc1cc(C)cc(CNC(=O)c2nc3ccc(O)cc3s2)c1 | 26 | –
21 | O=C(c1nc2ccc(O)cc2s1)N1Cc2ccc(Cl)cc2C1 | 21 | –
22 | COc1cc(CNC(=O)c2nc3ccc(O)cc3s2)cc(OC)c1 | 43 | –
23 | O=C(NCCc1cc2ccccc2[nH]1)c1nc2ccc(O)cc2s1 | 51 | EC50 [2]: 7.52 µM
24 | O=C(NCc1cccnc1)c1nc2ccc(O)cc2s1 | 28 | inhibition at 10 µM [3]: 48%
25 | COc1cccc(CNC(=O)c2nc3ccc(O)cc3s2)c1OC | 11 | –
26 | O=C(NC1CCCCC1)c1nc2ccc(O)cc2s1 | 32 | –
27 | CC(C)(C)c1ccc(CNC(=O)c2nc3ccc(O)cc3s2)cc1 | 19 | inhibition at 10 µM [3]: 44%
28 | O=C(Nc1nc2ccc(O)cc2s1)C1CCCCC1 | > 80 | IC50 [4]: 1.92 µM
29 | CCCCCCNC(=O)c1nc2ccc(O)cc2s1 | 37 | –
30 | COc1ccc(CNC(=O)c2nc3ccc(O)cc3s2)cc1 | 22 | inhibition at 10 µM [3]: 53%
31 | CCn1cc(C(=O)O)c(=O)c2cc(F)c(N3CCNCC3)cc21 [NORFLOXACIN] | – | Papp [5]: 1.25 ×10⁻⁶ cm/s
32 | O=C(NC1CCCC1)c1nc2ccc(O)cc2s1 | 35 | –
33 | O=C(NCc1ccc(-c2ccccc2)cc1)c1nc2ccc(O)cc2s1 | 30 | –
34 | O=C(NCc1ccc(-c2cccs2)cc1)c1nc2ccc(O)cc2s1 | 18 | inhibition at 10 µM [3]: 30%
35 | COc1ccc(CNC(=O)c2nc3ccc(O)cc3s2)cc1OC | 13 | –
36 | O=C(NCC1CCCCC1)c1nc2ccc(O)cc2s1 | 32 | –
37 | O=C(NCc1cc(C(F)(F)F)cc(C(F)(F)F)c1)c1nc2ccc(O)cc2s1 | 26 | –
38 | O=C(NC1CC1)c1nc2ccc(O)cc2s1 | 13 | inhibition at 10 µM [3]: 52%
39 | COc1ccc2sc(SC(=O)N/N=C\c3csc([N+](=O)[O-])c3)nc2c1 | – | IC50 [6]: 0.06 µM
40 | O=C(NCC(c1ccccc1)c1ccccc1)c1nc2ccc(O)cc2s1 | 13 | inhibition at 10 µM [3]: 43%
41 | COc1ccc2nc(C(=O)NC3CCCCC3)sc2c1 | > 60 | IC50 [4]: 3.82 µM
42 | O=C(N/N=C(\c1ccccc1)c1ccc(Cl)cc1)Nc1nc2ccc([N+](=O)[O-])cc2s1 | – | IC50 [7]: 0.004 µM
43 | O=C(c1nc2ccc(O)cc2s1)N1CCc2ccccc2C1 | 17 | –
44 | COc1cccc(CNC(=O)c2nc3ccc(O)cc3s2)c1 | 18 | –
45 | O=C(c1nc2ccc(O)cc2s1)N1CCCCC1 | 16 | inhibition at 10 µM [3]: 31%
46 | O=C(NCc1ccc([N+](=O)[O-])cc1)c1nc2ccc(O)cc2s1 | 15 | –
47 | O=C(NCC#Cc1ccccc1)c1nc2ccc(O)cc2s1 | 59 | –
48 | O=C(NC1CCCCC1)c1nc2ccccc2s1 | 26 | –
